Experimental data as given in patent US20140243411A1 (priority 2011, published 2014).

Columns and labels:
[1] = In vitro percutaneous permeation of C2E5 nonaqueous gel spiked with [14C]-C2E5; type: in vitro ADME, Sprague-Dawley (SD) rat
Procedure: An in vitro permeation study was carried out using a vertical diffusion cell system equipped with an autosampler (Hanson Microette Autosampling System, Hanson Research Co., USA). The area for permeation was 1.767 cm^2, and the receiver compartment volume was 7 mL. The experiments were run at 32° C. and stirred magnetically at 400 rpm. The receiver medium was 0.1M phosphate buffer (pH 7.4). SD rat skin samples were prepared by harvesting dorsal skin samples from freshly euthanized (<1 h) SD rats (n=9, 200-300 g). The skin was shaved and the subcutaneous fat tissue was carefully peeled from the dermis layer to remove potential interference due to high levels of esterase activity in subcutaneous tissue. The processed skin samples were inspected visually for membrane integrity. The qualified skin samples were stored at −20° C. until use. The SD rat skin samples were first allowed to thaw for at least 1 h in the receiver medium, and then mounted and clamped between the receiver and donor compartments of the diffusion cells. […] ([^14C]-C2E5; 50 mCi/mmol) labeled at carbon-1 (carbonyl carbon) was purchased from American Radiolabeled Chemicals, Inc., St. Louis, Mo.).
Collected samples were dispensed into Ultima Gold™ scintillation cocktail at a ratio of 100 μL:10 mL and assayed directly for radioactivity by liquid scintillation counting (LSC) using a Packard TriCarb 3100TR (PerkinElmer Life and Analytical Sciences) with automatic quench correction. Samples were counted for 10 min or until a 5% confidence level was achieved. The samples were subsequently assayed for intact C2E5 and its metabolites using HPLC-FSA. The cumulative releases of C2E5 and its metabolites were plotted as a function of time.
Fick's law (Equation 4) has been used as a simple model to describe the steady-state diffusion of drug through the skin:
where Jss=steady-state flux (mol/hr); D=drug diffusivity (cm^2/hr); h=membrane thickness (cm); Ksc/veh=drug's stratum corneum-vehicle partition coefficient; Cveh=drug concentration (mg/cm^3) in the vehicle; and A=surface area (cm^2). The cumulative amount of C2E5 and its metabolites permeated through the SD rat skin versus time is presented in FIG. 1, The overall concentrations of C2E5 and its metabolites in receiver compartment at different time points were calculated based on Equation 5.
The concentrations of C2E5 and its metabolites in the collected samples from the receiver compartment at different time points were analyzed by HPLC-FSA.

[2] = In vitro C2E5 metabolism studies using SD rat skin S9 fractions; type: in vitro ADME
[3] = test system: rats contaminated with ^241Am; assay: Radionuclide decorporation efficacy study in rats contaminated with 241Am (Example 10): excretion, tissue content, liver and skeleton burden; type: in vivo, SD rats
Procedure: All animal studies were conducted according to a protocol approved by the University of North Carolina at Chapel Hill Institutional Animal Care and Use Committee (IACUC). Ten-week-old adult female SD rats weighing from 200 to 300 g were used in these studies (Charles River Labs, Raleigh, N.C.). Food and water were given ad libitum. The animal room was kept at a controlled temperature (23° C.) and light cycle (light exposure from 8 AM to 8 PM). For the duration of the study, the rats were housed in metabolic cages individually with daily urine and feces collection until euthanasia on Day 7.
To evaluate the efficacy of transdermal delivery of the C2E5 nonaqueous gel, a radionuclide decorporation efficacy study was conducted in rats contaminated with ^241Am. Adult female SD rats were anesthetized with 2-3% isoflurane. Dorsal skin between the cervical vertebrae and anterior thoracic vertebrae was clipped with caution before all animals were contaminated with [^241Am]-Americium nitrate solution (250 nCi, 0.1 mL) via an i.m. injection in anterior thigh muscle. The C2E5 nonaqueous gel was applied at dose of 1000 mg/kg using a cotton swap to a 6 cm^2 (2 cm×3 cm) area of the clipped dorsal region immediately after contamination. A jacket with plastic dorsal insert (VWR International) was placed on the rat to protect the gel application region. The mass of C2E5 gel applied was recorded for each animal to permit the actual dose determination. The animals were housed in metabolic cages individually after C2E5 treatment and were euthanized 7 days after contamination. Positive and negative controls included animals administered Ca-DTPA intravenously and animals without any treatment. The animals were observed once daily and their body weights recorded at pre-dose and prior to necropsy, Urine and feces were collected daily until euthanasia, when the liver, kidneys, both femurs and the muscle tissue from around the injection site were also collected. Cage washes were collected at the end of each experiment. As ˜35% of the decay of ^241Am is associated with photon emissions of 59.7 keV, ^241Am present in samples was quantified using a gamma counter (2470 Wizard 2, Perkin Elmer). The samples were counted for one minute using a 40-80 keV energy detection window and were background-corrected. Additionally, ^241Am activity was quantified in 2×0.1 mL aliquots of the dosing solution. For all samples, ^241Am content was expressed as a percentage of the initial dose.
where % ID represents the percent of injected dose. Where data for both femurs were available, an estimate of the total skeletal burden was made using the method of Volf with modification in which the counts in the contra-lateral femur were multiplied by 19 and added to the counts in the ipsi-lateral femur. The modification for the literature method was due to higher ^241Am content in ipsi-lateral femur as a result of i.m. injection in anterior thigh muscle.
Statistically significant differences among groups were determined using one-way ANOVA with Tukey's post hoc comparison. All measurements are expressed as mean±standard deviation (S.D.). The level of significance was set at p<0.05.

[4] = log D by partitioning into octanol and water phases; type: physicochemical; settings: pH 6.0, octanol and water
Procedure: More than a dozen esters and amide derivatives of DTPA were synthesized. […] C2E5 is an oil with a viscosity of 163 cps at 25° C. […] The density of C2E5 was determined to be 1.119 g/mL. […] The intrinsic partition coefficient (log P) of C2E5 is difficult to measure due to its instability at high pH. Thus, the log D6.0 was determined by measuring the partitioning of C2E5 into octanol and water phases.

[5] = rats, seven days following a single dose, Ca-DTPA 14 mg/kg i.v., C2E5 1000 mg/kg transdermal
[6] = seven days after single dose, Ca-DTPA 14 mg/kg i.v., C2E5 1000 mg/kg transdermal gel
[7] = seven days, 1000 mg/kg transdermal

CCOC(=O)CN(CCN(CC(=O)OCC)CC(=O)OCC)CCN(CC(=O)OCC)CC(=O)OCC [Formulation C2E5, penta-substituted ethyl ester of DTPA]
cumulative amount of C2E5 and its metabolites permeated through the rat skin ([1]; at 8 h): 1.98 μmol/cm^2
initially applied C2E5 dose permeated through the rat skin (C2E5 and its metabolites) ([1]; at 8 h, gel 6% EC10, 25% C2E5, 69% MIGLYOL 840): ~10%
cumulative amount of C2E5 and its metabolites permeated through the rat skin ([1]; at 23 h): 3.55 μmol/cm^2
diffusional lag time through SD rat skin ([1]; gel 6% EC10, 25% C2E5, 69% MIGLYOL 840): 0.33 h
Jss per unit area through SD rat skin ([1]; steady-state between 2 h and 7 h, gel 6% EC10, 25% C2E5, 69% MIGLYOL 840): 0.276 μmol/cm^2/h
conversion of C2E5 to DTPA [2]: only minimally observed
Skeleton Burden (% of ID) ([3]; contra-lateral femur × 19 + ipsi-lateral femur, rats, seven days following a single dose, Ca-DTPA 14 mg/kg i.v. (n = 3), C2E5 1000 mg/kg transdermal): 9.6 ± 0.9 % of ID
Ipsi-lateral femur content of 241Am ([3]; rats, seven days following a single dose, Ca-DTPA 14 mg/kg i.v. (one animal excluded), C2E5 1000 mg/kg transdermal): 0.54 ± 0.10 % of ID of ^241Am
% of Reduction over control (liver burden) [3, 5]: 49.1%
% of Reduction over control (skeleton burden) [3, 5]: 41.1%
Contra-lateral femur content of 241Am [3, 5]: 0.48 ± 0.05 % of ID of ^241Am
Kidney content of 241Am [3, 5]: 0.63 ± 0.07 % of ID of ^241Am
Liver Burden (% of ID) [3, 5]: 8.4 ± 2.0 % of ID
Liver content of 241Am [3, 5]: 8.4 ± 2.0 % of ID of ^241Am
Muscle-contra content of 241Am [3, 5]: 0.0078 ± 0.0017 % of ID of ^241Am per gram of muscle-contra
Muscle-ipsi content of 241Am [3, 5]: 44.3 ± 2.0 % of ID of ^241Am
Pelt at injection site content of 241Am [3, 5]: 0.84 ± 0.66 % of ID of ^241Am
Total decorporation (% of ID of 241Am) [3, 5]: 26.2 ± 2.7 % of ID of ^241Am
reduction of liver burden of ^241Am versus control group ([3]; seven days after single dose, Ca-DTPA 14 mg/kg i.v., C2E5 1000 mg/kg transdermal): 49.1%
% of Enhanced decorporation over control [3, 6]: 279.9%
Cumulative excretion of ^241Am In feces [3, 6]: 7.8 ± 1.2 % of ID
Cumulative excretion of ^241Am In urine [3, 6]: 18.4 ± 1.8 % of ID
Cumulative excretion of ^241Am Total [3, 6]: 26.2 ± 2.7 % of ID
^241Am burden in the ipsi-lateral femur versus no-treatment control [3, 7]: statistically significant reduction
skeleton burden of ^241Am versus control group [3, 7]: statistically significant reduction
logD [4]: 2.2
